Article PMC4579270, “Identification and Characterization of an Irreversible Inhibitor of CDK2” (Chemistry & Biology, 2015)
Where two headings read alike, the source gives them in different places.

Assays:
[1] = test system: phosphorylation of Rb at Thr821 in SKUT-1B cells; assay: Inhibition of Rb phosphorylation in cells (western blot); assay type: cell-based; details: Homo sapiens, Skut1B, 1 hr exposure
Procedure: The cellular potency of NU6300 was examined by measuring the inhibition of Rb phosphorylation following exposure of SKUT-1B cells to the inhibitor for 1 hr. Pre-incubation with 50 μM NU6300 inhibited phosphorylation of Rb at […], a known CDK2 phosphorylation site, by 43%. […] This difference just reached statistical significance (p = 0.04). […] Representative of three different experiments. […] Protein expression levels of phospho-Rb ([…]) were normalized to the levels of total Rb in respective samples using densitometry. Relative protein expression levels are presented as percentage of inhibition of phosphorylation of Rb ([…]) compared with the control cells for each time point. Error bars represent the mean value and SD from three independent experiments. Statistical analysis was performed using the unpaired Student's t test, one-tailed. Western blot analysis was carried out as described previously ([Thomas et al., 2011]) using rabbit anti-[…] phospho-Rb antibody (Invitrogen) or mouse antihuman Rb antibody (BD Pharmingen) to detect phosphorylated and total retinoblastoma protein, respectively. Sample preparation is described in Supplemental Experimental Procedures. page 14: formate) before cryo-coolling. Data processing was carried out using programs of the CCP4 suite (CCP4, 1994). The structure of NU6300 bound to CDK2/cyclin A was solved by molecular replacement using Phaser (McCoy et al., 2007), using as the search model a high-resolution structure of a recruitment peptide bound to CDK2/cyclin A ((Cheng et al., 2006) PDB code 2CCH). A single clear solution was found with an inhibitor bound to each of the two copies of the binary complex in the asymmetric unit. This solution was then subjected to rigid body refinement in REFMAC (Murshudov et al., 1997), to reveal unambiguous electron density in the CDK2 ATP-binding site, consistent with the expected shape of the inhibitor. A model of NU6300 was created using Coot (Emsley et al., 2010). The inhibitor atoms were kept in all subsequent models during refinement carried out by additional rounds of manual rebuilding in Coot and restrained refinement in REFMAC5, including TLS refinement. Towards the end of refinement, waters were added using the Coot water picking utility and manually verified. Western blotting SKUT-1B cells (ATCC, Manassas, USA) were grown in MEM medium supplemented with non-essential amino acids, L-Glutamine, sodium pyruvate and 10% (v/v) foetal calf serum (Sigma, UK). […] Cells were harvested at different time points after the washout and lysed by adding PhosphoSafe extraction reagent (Merck, UK) containing protease inhibitor cocktail (Roche, UK) at the manufacturer's recommended dilution. The harvested cell suspension was placed in an eppendorf tube on ice, centrifuged at 13,000x g for 5 min, and the supernatant (cell lysate) removed for analysis. Subsequent western blot analysis was carried out as described in (Thomas et al., 2011) using rabbit anti-[…] phospho-Rb antibody (Invitrogen, Paisley, UK Cat No. 44-[…]) or mouse anti-human Rb antibody (BD Pharmingen, Oxford, UK Cat No. 554136) to detect phosphorylated and total retinoblastoma protein, respectively.

[2] = target: T1, Aurora A (Homo sapiens, UniProt O14965); assay: Dundee kinase screen re-test (standard format and 4 hour pre-incubation); assay type: biochemical
T1 sequence (O14965 1-403): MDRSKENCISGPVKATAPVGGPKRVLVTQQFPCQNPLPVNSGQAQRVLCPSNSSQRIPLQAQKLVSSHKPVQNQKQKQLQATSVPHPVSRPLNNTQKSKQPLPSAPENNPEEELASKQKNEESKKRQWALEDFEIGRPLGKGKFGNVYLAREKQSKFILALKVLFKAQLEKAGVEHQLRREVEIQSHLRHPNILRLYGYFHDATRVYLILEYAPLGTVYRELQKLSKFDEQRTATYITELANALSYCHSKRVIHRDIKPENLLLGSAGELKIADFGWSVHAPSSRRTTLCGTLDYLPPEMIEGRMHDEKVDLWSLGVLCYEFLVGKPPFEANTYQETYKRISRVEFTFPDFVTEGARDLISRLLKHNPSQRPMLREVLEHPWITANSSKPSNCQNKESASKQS
Procedure: (§1) Prior to determining its cellular activity, we carried out a screen to assess its selectivity against a panel of 131 protein kinases under conditions that would not distinguish between a reversible or irreversible mode of action. […] These 13 kinases and 29 additional kinases, selected for their known sensitivity to other inhibitors within the purine series, were then tested in a modified screening format in which the assay was repeated following a 4-hr pre-incubation (Table S3B). […] However, conformational flexibility around the active site may promote such an interaction with a residue from another part of the structure ([Martin et al., 2012]).
(§2) Table S3, Related to Figure 4. NCL-0006300 protein kinase selectivity. (A) NU6300 was tested at a single concentration of 1µM against 131 protein kinases present in a Dundee protein kinase screen (Bain et al., 2007). Values given are % activity remaining and are the average of duplicate measurements: 0-25% (red), 26-50% (yellow), 51-80% (black) and above 81% (green). The kinase domain sequences (as defined by UniProt) of […]
(§3) have a lysine residue at a position close to CDK2 Lys88 or Lys89. However, in the structure of tyrosine-protein kinase BTK (PDB ID: 3GEN) the residue equivalent to CDK2 Asp86 is Cys481 and therefore there is the potential for a covalent adduct to be formed through this side chain. Ephrin type-B receptor 3 (UniProt entry P54753) also encodes a cysteine residue (Cys717) that by sequence alignment would be predicted to be close to the CDK2 lysine pair. (B) Selected kinases were re-tested in the Dundee kinase screen against NU6300 at a single concentration of 0.5 µM both in the standard assay format and following a 4 hour pre-incubation in the presence of NU6300. Kinases which have very low activity after the 4 hour incubation so that results might not be wholly reliable are boxed in salmon. Kinases where the activity after a 4 hour pre-incubation is < 50% that in the standard assay format are highlighted in red.

[3] = target: Aurora B (Homo sapiens, UniProt Q96GD4); assay: as above; assay type: biochemical
Aurora B, sequence (Q96GD4 whole entry): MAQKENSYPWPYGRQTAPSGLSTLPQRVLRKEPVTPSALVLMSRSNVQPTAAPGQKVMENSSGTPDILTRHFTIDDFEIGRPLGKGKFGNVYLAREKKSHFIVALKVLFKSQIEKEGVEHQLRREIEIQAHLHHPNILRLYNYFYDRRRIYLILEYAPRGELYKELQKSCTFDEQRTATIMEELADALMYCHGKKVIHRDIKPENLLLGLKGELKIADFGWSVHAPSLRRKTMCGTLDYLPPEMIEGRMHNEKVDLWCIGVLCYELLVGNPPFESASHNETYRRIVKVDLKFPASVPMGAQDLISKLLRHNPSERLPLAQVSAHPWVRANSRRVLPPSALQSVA
Procedure: as §1, §2, §3

[4] = target: PRK2 (Homo sapiens, UniProt Q16513); assay: as above; assay type: biochemical; details: PRK2, 0.5µM
PRK2, sequence (Q16513 whole entry): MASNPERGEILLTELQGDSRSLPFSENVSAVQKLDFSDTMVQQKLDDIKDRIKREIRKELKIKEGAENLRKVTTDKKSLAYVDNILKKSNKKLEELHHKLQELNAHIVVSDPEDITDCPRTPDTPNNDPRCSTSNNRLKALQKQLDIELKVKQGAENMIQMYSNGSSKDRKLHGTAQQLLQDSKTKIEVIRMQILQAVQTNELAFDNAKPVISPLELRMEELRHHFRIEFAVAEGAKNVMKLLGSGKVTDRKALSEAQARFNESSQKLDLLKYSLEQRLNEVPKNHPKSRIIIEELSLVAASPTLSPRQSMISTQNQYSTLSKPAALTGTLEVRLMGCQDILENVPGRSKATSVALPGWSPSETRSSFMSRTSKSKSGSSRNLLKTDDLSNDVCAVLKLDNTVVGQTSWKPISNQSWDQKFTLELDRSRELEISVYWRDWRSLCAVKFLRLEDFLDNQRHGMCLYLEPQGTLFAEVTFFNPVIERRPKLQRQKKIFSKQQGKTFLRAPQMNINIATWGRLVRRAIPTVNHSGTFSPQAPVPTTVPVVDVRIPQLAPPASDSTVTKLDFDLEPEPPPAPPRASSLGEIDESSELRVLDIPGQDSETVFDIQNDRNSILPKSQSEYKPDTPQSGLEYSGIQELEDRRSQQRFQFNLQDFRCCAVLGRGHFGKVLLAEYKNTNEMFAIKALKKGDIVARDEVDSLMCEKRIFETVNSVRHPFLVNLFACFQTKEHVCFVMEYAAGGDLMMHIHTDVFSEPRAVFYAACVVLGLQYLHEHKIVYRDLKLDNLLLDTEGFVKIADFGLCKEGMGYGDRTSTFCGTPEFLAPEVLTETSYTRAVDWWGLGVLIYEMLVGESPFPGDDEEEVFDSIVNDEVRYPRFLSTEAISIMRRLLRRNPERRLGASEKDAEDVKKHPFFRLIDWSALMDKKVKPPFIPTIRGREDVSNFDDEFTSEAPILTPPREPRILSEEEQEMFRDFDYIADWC
Procedure: as §1, §2, §3

[5] = target: VEG-FR1 (Homo sapiens, UniProt P17948); assay: as above; assay type: biochemical; details: VEG-FR1, 0.5µM
VEG-FR1, sequence (P17948 27-1338): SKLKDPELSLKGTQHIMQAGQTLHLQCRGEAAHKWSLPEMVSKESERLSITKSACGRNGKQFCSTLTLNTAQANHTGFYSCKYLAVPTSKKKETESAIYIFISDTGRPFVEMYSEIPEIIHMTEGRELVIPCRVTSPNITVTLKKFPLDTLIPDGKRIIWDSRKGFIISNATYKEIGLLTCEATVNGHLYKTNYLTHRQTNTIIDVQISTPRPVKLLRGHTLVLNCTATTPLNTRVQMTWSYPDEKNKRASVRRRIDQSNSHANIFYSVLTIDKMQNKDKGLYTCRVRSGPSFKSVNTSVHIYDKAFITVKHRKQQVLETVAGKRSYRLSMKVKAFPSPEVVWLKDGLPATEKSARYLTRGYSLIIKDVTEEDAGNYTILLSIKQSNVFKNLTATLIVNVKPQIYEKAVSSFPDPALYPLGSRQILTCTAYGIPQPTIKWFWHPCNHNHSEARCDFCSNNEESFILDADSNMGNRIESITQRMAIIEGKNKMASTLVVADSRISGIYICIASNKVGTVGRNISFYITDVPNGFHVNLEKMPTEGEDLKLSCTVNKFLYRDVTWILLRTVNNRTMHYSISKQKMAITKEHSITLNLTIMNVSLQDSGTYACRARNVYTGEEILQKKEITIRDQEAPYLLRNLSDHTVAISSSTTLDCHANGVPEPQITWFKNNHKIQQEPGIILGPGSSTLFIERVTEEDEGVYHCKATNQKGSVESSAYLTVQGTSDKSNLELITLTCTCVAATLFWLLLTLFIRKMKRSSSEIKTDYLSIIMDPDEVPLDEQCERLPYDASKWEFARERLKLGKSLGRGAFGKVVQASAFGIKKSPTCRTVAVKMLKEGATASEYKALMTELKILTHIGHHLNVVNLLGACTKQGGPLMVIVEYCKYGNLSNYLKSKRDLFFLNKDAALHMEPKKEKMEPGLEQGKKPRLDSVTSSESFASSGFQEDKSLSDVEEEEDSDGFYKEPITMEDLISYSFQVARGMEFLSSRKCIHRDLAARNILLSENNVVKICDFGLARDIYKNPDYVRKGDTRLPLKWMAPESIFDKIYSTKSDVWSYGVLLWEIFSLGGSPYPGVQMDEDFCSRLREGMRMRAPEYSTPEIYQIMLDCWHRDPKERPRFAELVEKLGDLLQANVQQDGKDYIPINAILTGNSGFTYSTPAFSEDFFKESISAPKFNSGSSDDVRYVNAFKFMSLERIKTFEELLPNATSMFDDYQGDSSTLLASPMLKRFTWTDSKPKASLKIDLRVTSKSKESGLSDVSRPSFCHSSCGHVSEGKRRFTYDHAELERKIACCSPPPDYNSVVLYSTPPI
Procedure: as §1, §2, §3

[6] = 4hr RT preincubation, read-out: %Remaining activity at 0.5µM NU6300 - 4hr RT preincubation
[7] = usual format, read-out: %Remaining activity at 0.5µM NU6300 - Usual assay format

Structure (SMILES): C=CS(=O)(=O)c1ccc(Nc2nc(OCC3CCCCC3)c3nc[nH]c3n2)cc1 [NU6300, 6-(cyclohexylmethoxy)-N-(4-(vinylsulfonyl)phenyl)-9H-purin-2-amine]
- inhibition at 50 µM ([1]; before washout, read-out: inhibition of phosphorylation of Rb at Thr821): 43%
- inhibition at 50 µM ([1]; then 1-hr washout in drug-free media, read-out: inhibition of phosphorylation of Rb at Thr821 after washout): 33%
- remaining activity at 0.5 µM [2, 6]: 6%
- remaining activity at 0.5 µM [2, 7]: 26%
- additional loss of activity after pre-incubation ([2]; 4-hr pre-incubation vs usual format, 0.5 µM): > 50%
- remaining activity at 0.5 µM [3, 6]: 87%
- remaining activity at 0.5 µM [3, 7]: 43%
- remaining activity at 0.5 µM [4, 6]: 84%
- remaining activity at 0.5 µM [4, 7]: 65%
- remaining activity at 0.5 µM [5, 6]: 51%
- remaining activity at 0.5 µM [5, 7]: 43%
